Assay results: ChEMBL document CHEMBL1201862, “PubChem BioAssay data set” (2004)
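A five-concentration, 48-hour dose response in 96-well plates underlies each endpoint, interpolated linearly between surrounding concentrations. Abbreviation: GI50, concentration required for 50% inhibition of growth.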 Calls of active or inactive are those of the source. No stated cut-off is given here; in the data, active = GI50 up to about 1.1 µM and inactive = higher.

Experiments:
Assay in all cases: NCI anticancer screen, dose series, 48 h
SF-295 = tested on: SF-295
U-251 = tested on: U-251
K562 = tested on: K562
UO-31 = tested on: UO-31
KM12 = tested on: KM12
SN12C = tested on: SN12C
SW-620 = tested on: SW-620
RXF 393 = tested on: RXF 393
SNB-19 = tested on: SNB-19
NCI-H226 = tested on: NCI-H226
A498 = tested on: A498
NCI-H522 = tested on: NCI-H522
ACHN = tested on: ACHN
DU-145 = tested on: DU-145
T47D = tested on: T47D
HCT-15 = tested on: HCT-15
LOX IMVI = tested on: LOX IMVI
Hs-578T = tested on: Hs-578T
CAKI-1 = tested on: CAKI-1
TK-10 = tested on: TK-10
OVCAR-8 = tested on: OVCAR-8
COLO 205 = tested on: COLO 205
HCT-116 = tested on: HCT-116
NCI-H23 = tested on: NCI-H23
RPMI-8226 = tested on: RPMI-8226
OVCAR-4 = tested on: OVCAR-4
MDA-MB-231 = tested on: MDA-MB-231
MOLT-4 = tested on: MOLT-4
SNB-75 = tested on: SNB-75
IGROV-1 = tested on: IGROV-1
SF-268 = tested on: SF-268
BT-549 = tested on: BT-549
MDA-MB-435 = tested on: MDA-MB-435
OVCAR-5 = tested on: OVCAR-5
SR = tested on: SR
NCI/ADR-RES = tested on: NCI/ADR-RES
MCF7 = tested on: MCF7
786-0 = tested on: 786-0
A549 = tested on: A549
UACC-62 = tested on: UACC-62
HT-29 = tested on: HT-29
UACC-257 = tested on: UACC-257
SF-539 = tested on: SF-539
CCRF-CEM = tested on: CCRF-CEM
SK-MEL-28 = tested on: SK-MEL-28
M14 = tested on: M14
EKVX = tested on: EKVX
HOP-92 = tested on: HOP-92
SK-OV-3 = tested on: SK-OV-3
HCC 2998 = tested on: HCC 2998

COc1ccc2c(c1)CCN1CCc3cc(OC)c(OC)cc3CC21 (stereo not given)
GI50 (SF-295): > 100 µM (inactive)
GI50 (U-251): 72.3 µM (inactive)
GI50 (K562): 34.9 µM (inactive)
GI50 (UO-31): 31.8 µM (inactive)
GI50 (KM12): 88.5 µM (inactive)
GI50 (SN12C): > 100 µM (inactive)
GI50 (SW-620): 80.5 µM (inactive)
GI50 (RXF 393): 69 µM (inactive)
GI50 (SNB-19): 82 µM (inactive)
GI50 (NCI-H226): > 100 µM (inactive)
GI50 (A498): > 100 µM (inactive)
GI50 (NCI-H522): > 10 µM (inactive)
GI50 (ACHN): > 100 µM (inactive)
GI50 (DU-145): > 100 µM (inactive)
GI50 (T47D): 73.3 µM (inactive)
GI50 (HCT-15): 61 µM
GI50 (LOX IMVI): 33 µM (inactive)
GI50 (Hs-578T): 89.5 µM (inactive)
GI50 (CAKI-1): > 100 µM (inactive)
GI50 (TK-10): > 100 µM (inactive)
GI50 (OVCAR-8): > 100 µM (inactive)
GI50 (COLO 205): 21.3 µM (inactive)
GI50 (HCT-116): 41.9 µM (inactive)
GI50 (NCI-H23): 98.9 µM (inactive)
GI50 (RPMI-8226): 65.5 µM (inactive)
GI50 (OVCAR-4): > 100 µM (inactive)
GI50 (MDA-MB-231): > 100 µM (inactive)
GI50 (MOLT-4): 39.4 µM (inactive)
GI50 (SNB-75): 66.7 µM (inactive)
GI50 (IGROV-1): > 10 µM (inactive)
GI50 (SF-268): 28.9 µM (inactive)
GI50 (BT-549): 10.3 µM (inactive)
GI50 (MDA-MB-435): 66.1 µM (inactive)
GI50 (OVCAR-5): > 100 µM (inactive)
GI50 (SR): 39.8 µM (inactive)
GI50 (NCI/ADR-RES): > 100 µM (inactive)
GI50 (MCF7): 90.4 µM (inactive)
GI50 (786-0): > 100 µM (inactive)
GI50 (A549): > 100 µM (inactive)
GI50 (UACC-62): 32.6 µM (inactive)
GI50 (HT-29): 35 µM (inactive)
GI50 (UACC-257): 93.8 µM (inactive)
GI50 (SF-539): 76.4 µM (inactive)
GI50 (CCRF-CEM): 55 µM (inactive)
GI50 (SK-MEL-28): > 100 µM (inactive)
GI50 (M14): 58.5 µM (inactive)
GI50 (EKVX): > 10 µM (inactive)
GI50 (HOP-92): 89.3 µM (inactive)
GI50 (SK-OV-3): > 100 µM (inactive)
GI50 (HCC 2998): 38.3 µM (inactive)
